24 compounds from patent publication US20240368135A1 (VERTEX PHARMACEUTICALS INCORPORATED, priority 2021, published 2024) can be followed below.

Each structure is given as a SMILES string. Bounds are passed on as bounds.

human NaV 1.8, sequence (Q9Y5Y9 126-399 limits assumed): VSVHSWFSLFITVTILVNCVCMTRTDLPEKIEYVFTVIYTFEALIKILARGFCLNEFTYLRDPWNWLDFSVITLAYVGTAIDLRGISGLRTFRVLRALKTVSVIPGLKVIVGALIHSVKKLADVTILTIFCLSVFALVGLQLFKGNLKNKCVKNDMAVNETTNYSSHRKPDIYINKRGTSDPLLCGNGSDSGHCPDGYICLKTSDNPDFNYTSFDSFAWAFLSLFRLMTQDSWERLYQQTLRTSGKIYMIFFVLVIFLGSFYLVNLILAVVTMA
human NaV 1.8, sequence (Q9Y5Y9 660-890 limits assumed): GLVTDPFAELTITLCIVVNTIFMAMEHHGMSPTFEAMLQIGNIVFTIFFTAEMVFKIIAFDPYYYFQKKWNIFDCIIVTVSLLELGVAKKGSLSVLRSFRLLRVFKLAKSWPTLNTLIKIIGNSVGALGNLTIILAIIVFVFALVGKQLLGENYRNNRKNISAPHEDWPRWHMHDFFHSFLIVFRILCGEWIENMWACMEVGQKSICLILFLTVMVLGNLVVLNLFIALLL
human NaV 1.8, sequence (Q9Y5Y9 1148-1722 limits assumed): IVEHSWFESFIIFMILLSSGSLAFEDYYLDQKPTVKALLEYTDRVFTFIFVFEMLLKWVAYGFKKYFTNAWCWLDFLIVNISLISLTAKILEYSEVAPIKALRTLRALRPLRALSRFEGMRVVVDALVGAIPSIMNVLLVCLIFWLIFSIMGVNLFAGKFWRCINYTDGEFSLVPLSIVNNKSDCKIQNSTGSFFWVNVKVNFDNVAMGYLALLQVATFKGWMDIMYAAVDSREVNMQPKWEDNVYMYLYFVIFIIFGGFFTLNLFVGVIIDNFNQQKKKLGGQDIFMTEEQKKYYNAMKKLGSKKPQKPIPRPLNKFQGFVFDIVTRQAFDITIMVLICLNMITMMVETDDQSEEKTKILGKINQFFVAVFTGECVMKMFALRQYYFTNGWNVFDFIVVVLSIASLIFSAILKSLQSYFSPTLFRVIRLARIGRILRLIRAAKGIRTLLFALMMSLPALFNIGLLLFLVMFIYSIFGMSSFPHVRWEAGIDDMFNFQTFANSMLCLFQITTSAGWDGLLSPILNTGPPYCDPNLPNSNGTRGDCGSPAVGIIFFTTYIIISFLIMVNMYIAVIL

The first assay concerns the target human NaV 1.8 (Homo sapiens, UniProt Q9Y5Y9). The assay can be described thus: E-VIPR assay detecting and measuring NaV inhibition properties. The format is cell-based. As to conditions: HEK cells expressing truncated human NaV 1.8; in the presence of human serum (compound numbers followed by *); read-out: IC50 in the E-VIPR Assay, performed in the presence of human serum. A digest of the protocol:
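Membrane potential was followed by coumarin/oxonol FRET during electrical field stimulation of matrigel-seeded HEK cells carrying truncated human NaV1.8 plus KIR2.1. Dosing used 11 points, 3-fold steps, top 300 nM final, 0.625% DMSO, with or without 25% human serum.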
Turning to `COc1c([C@H]2[C@H](C(=O)Nc3cnnc(C(O)CO)c3)O[C@@](C)(C(F)(F)F)[C@H]2C)ccc(F)c1F` (single isomer, unassigned) [Compound 206, rel-(2R*,3S*,4S*,5R*)-3-(3,4-difluoro-2-methoxyphenyl)-N-(6-(1,2-dihydroxyethyl)pyridazin-4-yl)-4,5-dimethyl-5-(trifluoromethyl)tetrahydrofuran-2-carboxamide], the IC50 lay in the range of 10 to 100 nM.
On the same count and under the same terms, in the case of `CNCc1cc(NC(=O)[C@@H]2O[C@@](C)(C(F)(F)F)[C@@H](C)[C@H]2c2ccc(F)c(F)c2OC)c(F)cn1` (single isomer, unassigned) [Compound 13, 3-(3,4-difluoro-2-methoxy-phenyl)-N-[5-fluoro-2-(methylaminomethyl)-4-pyridyl]-4,5-dimethyl-5-(trifluoromethyl)tetrahydrofuran-2-carboxamide] it was 10 to 100 nM.

The same assay, now with this note: HEK cells expressing truncated human NaV 1.8; no human serum; read-out: IC50 in the E-VIPR Assay.
For `CCS(=O)(=O)c1cc(NC(=O)[C@H]2O[C@](C)(C(F)(F)F)[C@H](C)[C@@H]2c2ccc(F)c(F)c2OC(F)F)ccn1` (single isomer, unassigned) [Compound 89], the IC50 fell in the range of 100 to 1000 nM.
`C[C@@H]1[C@H](c2ccc(F)c(F)c2)[C@@H](C(=O)Nc2ccnc(S(C)(=O)=O)c2)O[C@]1(C)C(F)(F)F` (stereo in doubt) [Compound 154, rel-(2S,3R,4R,5S)-3-(3,4-difluorophenyl)-4,5-dimethyl-N-(2-(methylsulfonyl)pyridin-4-yl)-5-(trifluoromethyl)tetrahydrofuran-2-carboxamide]: the half-maximal inhibitory concentration (IC50) is at least 1000 nM.
With `COc1c([C@H]2[C@H](C(=O)Nc3ccnc(N(C)C(=O)CN(C)C)c3)O[C@@](C)(C(F)(F)F)[C@H]2C)ccc(F)c1F` [Compound 522, (2R,3S,4S,5R)-3-(3,4-difluoro-2-methoxy-phenyl)-N-[2-[[2-(dimethylamino)acetyl]-methyl-amino]-4-pyridyl]-4,5-dimethyl-5-(trifluoromethyl)tetrahydrofuran-2-carboxamide], the IC50 was below 10 nM.
Regarding `CC1C(c2ccc(F)c(F)c2OC2CC(O)C2)C(C(=O)Nc2cc(CO)ncc2F)OC1(C)C(F)(F)F` [Compound 657, (2R,3S,4S,5R)-3-(3,4-difluoro-2-((1S,3R)-3-hydroxycyclobutoxy)phenyl)-N-(5-fluoro-2-(hydroxymethyl)pyridin-4-yl)-4,5-dimethyl-5-(trifluoromethyl)tetrahydrofuran-2-carboxamide], the IC50 was at least 1000 nM.
Same read-out and setting: in the case of `C[C@@H]1[C@H](c2ccc(F)c(F)c2OC(F)F)[C@@H](C(=O)Nc2ccc(CCO)nc2)O[C@]1(C)C(F)(F)F` (single isomer, unassigned) [Compound 459] it was at least 1000 nM; in that of `C[C@H]1[C@@H](c2ccc(F)c(F)c2O[C@H]2C[C@@H](O)C2)[C@H](C(=O)Nc2ccnnc2)O[C@@]1(C)C(F)(F)F` [Compound 658, (2R,3S,4S,5R)-3-(3,4-difluoro-2-((1s,3R)-3-hydroxycyclobutoxy)phenyl)-4,5-dimethyl-N-(pyridazin-4-yl)-5-(trifluoromethyl)tetrahydrofuran-2-carboxamide], 10 to 100 nM.
In the case of `Cc1cn(C)c(COc2c([C@H]3[C@H](C(=O)Nc4cccnc4)O[C@@](C)(C(F)(F)F)[C@H]3C)ccc(F)c2F)n1` [Compound 650, (2R,3S,4S,5R)-3-(2-((1,4-dimethyl-1H-imidazol-2-yl)methoxy)-3,4-difluorophenyl)-4,5-dimethyl-N-(pyridin-3-yl)-5-(trifluoromethyl)tetrahydrofuran-2-carboxamide], the IC50 lay within 10 to 100 nM.
The same measure, in the same setting: in the case of `CCOc1c([C@H]2[C@H](C(=O)Nc3ccnc(S(C)(=N)=O)c3)O[C@@](C)(C(F)(F)F)[C@H]2C)ccc(F)c1C` (relative stereo) [Compound 125, rel-(2R,3S,4S,5R)-3-(2-ethoxy-4-fluoro-3-methylphenyl)-4,5-dimethyl-N-(2-(S-methylsulfonimidoyl)pyridin-4-yl)-5-(trifluoromethyl)tetrahydrofuran-2-carboxamide] it was below 10 nM; in that of `Cc1c(F)ccc(C2C(C(=O)Nc3ccnc(S(C)(=O)=O)c3)OC(C)(C(F)(F)F)C2C)c1OC(F)F` (stereo not drawn) [Compound 97, 3-[2-(difluoromethoxy)-4-fluoro-3-methyl-phenyl]-4,5-dimethyl-N-(2-methylsulfonyl-4-pyridyl)-5-(trifluoromethyl)tetrahydrofuran-2-carboxamide], below 10 nM; in that of `C[C@H]1[C@@H](c2ccc(F)c(F)c2OCCO)[C@H](C(=O)Nc2ncn(C3CCOC3)n2)O[C@@]1(C)C(F)(F)F` (stereo partly drawn) [Compound 561, (2R,3S,4S,5R)-3-(3,4-difluoro-2-(2-hydroxyethoxy)phenyl)-4,5-dimethyl-N-(1-(tetrahydrofuran-3-yl)-1H-1,2,4-triazol-3-yl)-5-(trifluoromethyl)tetrahydrofuran-2-carboxamide], at least 1000 nM.
With `COc1c([C@H]2[C@H](C(=O)Nc3ccnc(N4C[C@H]5CC[C@@H](C4=O)N5C)c3)O[C@@](C)(C(F)(F)F)[C@H]2C)ccc(F)c1F` (single isomer, unassigned) [Compound 503, rel-(2R*,3S*,4S*,5R*)-3-(3,4-difluoro-2-methoxyphenyl)-4,5-dimethyl-N-(2-((1S,5R)-8-methyl-2-oxo-3,8-diazabicyclo[3.2.1]octan-3-yl)pyridin-4-yl)-5-(trifluoromethyl)tetrahydrofuran-2-carboxamide], the IC50 is below 10 nM.
For `COc1c([C@H]2[C@H](C(=O)Nc3ccnc(N4CCC(N)C4=O)c3)O[C@@](C)(C(F)(F)F)[C@H]2C)ccc(F)c1F` (single isomer, unassigned) [Compound 497, rel-(2R*,3S*,4S*,5R*)-N-(2-(3-amino-2-oxopyrrolidin-1-yl)pyridin-4-yl)-3-(3,4-difluoro-2-methoxyphenyl)-4,5-dimethyl-5-(trifluoromethyl)tetrahydrofuran-2-carboxamide], the IC50 lay within 10 to 100 nM.
Still for that read-out and setting: for `C[C@H]1[C@@H](c2ccc(F)c(F)c2OCC(C)(F)F)[C@H](C(=O)Nc2ccnc(CO)c2)O[C@@]1(C)C(F)(F)F` [Compound 643, (2R,3S,4S,5R)-3-(2-(2,2-difluoropropoxy)-3,4-difluorophenyl)-N-(2-(hydroxymethyl)pyridin-4-yl)-4,5-dimethyl-5-(trifluoromethyl)tetrahydrofuran-2-carboxamide] the value was below 10 nM; for `COc1c([C@H]2[C@H](C(=O)Nc3ccnc(N4CCN(C)[C@@H](C)C4=O)c3)O[C@@](C)(C(F)(F)F)[C@H]2C)ccc(F)c1F` [Compound 476, (2R,3S,4S,5R)-3-(3,4-difluoro-2-methoxyphenyl)-N-(2-((S)-3,4-dimethyl-2-oxopiperazin-1-yl)pyridin-4-yl)-4,5-dimethyl-5-(trifluoromethyl)tetrahydrofuran-2-carboxamide], 10 to 100 nM.
The same measure, in the same setting: in the case of `COc1c([C@H]2[C@H](C(=O)Nc3ccc(C(C)(O)CF)nc3)O[C@@](C)(C(F)(F)F)[C@H]2C)ccc(F)c1F` (single isomer, unassigned) [Compound 224, rel-(2R*,3S*,4S*,5R*)-3-(3,4-difluoro-2-methoxyphenyl)-N-(6-(1-fluoro-2-hydroxypropan-2-yl)pyridin-3-yl)-4,5-dimethyl-5-(trifluoromethyl)tetrahydrofuran-2-carboxamide] it was 100 to 1000 nM; in that of `C[C@H]1[C@@H](c2ccc(F)c(F)c2OCCO)[C@H](C(=O)Nc2ncnc3c2cnn3C(C)(C)C)O[C@@]1(C)C(F)(F)F` [Compound 563, (2R,3S,4S,5R)-N-(1-(tert-butyl)-1H-pyrazolo[3,4-d]pyrimidin-4-yl)-3-(3,4-difluoro-2-(2-hydroxyethoxy)phenyl)-4,5-dimethyl-5-(trifluoromethyl)tetrahydrofuran-2-carboxamide], at least 1000 nM; in that of `CNC(=O)c1cn2cc(NC(=O)[C@@H]3O[C@@](C)(C(F)(F)F)[C@@H](C)[C@H]3c3ccc(F)c(F)c3OC)ccc2n1` [Compound 258, 6-((2R,3S,4S,5R)-3-(3,4-difluoro-2-methoxyphenyl)-4,5-dimethyl-5-(trifluoromethyl)tetrahydrofuran-2-carboxamido)-N-methylimidazo[1,2-a]pyridine-2-carboxamide], 10 to 100 nM.
The same measure, in the same setting: for `COc1c([C@H]2[C@H](C(=O)Nc3ccc(C(=O)N(C)S(C)(=O)=O)nc3)O[C@@](C)(C(F)(F)F)[C@H]2C)ccc(F)c1F` [Compound 376, 5-[[(2R,3S,4S,5R)-3-(3,4-difluoro-2-methoxy-phenyl)-4,5-dimethyl-5-(trifluoromethyl)tetrahydrofuran-2-carbonyl]amino]-N-methyl-N-methylsulfonyl-pyridine-2-carboxamide] the value was 10 to 100 nM; for `COc1c([C@H]2[C@H](C(=O)NCC3COC(C)(C)C3)O[C@@](C)(C(F)(F)F)[C@H]2C)ccc(F)c1F` (stereo partly drawn) [Compound 284, (2R,3S,4S,5R)-3-(3,4-difluoro-2-methoxyphenyl)-N-((5,5-dimethyltetrahydrofuran-3-yl)methyl)-4,5-dimethyl-5-(trifluoromethyl)tetrahydrofuran-2-carboxamide], at least 1000 nM.
Turning to `CN=S(C)(=O)c1cc(NC(=O)[C@@H]2O[C@@](C)(C(F)(F)F)[C@@H](C)[C@H]2c2ccc(F)c(F)c2OC)ccn1` (relative stereo) [Compound 528, rel-(2R,3S,4S,5R)-3-(3,4-difluoro-2-methoxyphenyl)-N-(2-(N,S-dimethylsulfonimidoyl)pyridin-4-yl)-4,5-dimethyl-5-(trifluoromethyl)tetrahydrofuran-2-carboxamide], the IC50 is below 10 nM.
On the same count and under the same terms, for `COc1c([C@H]2[C@H](C(=O)Nc3ccnc(N4CCN(C)CC4=O)c3)O[C@@](C)(C(F)(F)F)[C@H]2C)ccc(F)c1C(F)F` (single isomer, unassigned) [Compound 162] the value was below 10 nM; for `CCOc1c([C@@H]2C[C@](C)(C(F)(F)F)O[C@H]2C(=O)Nc2ccnc(C(O)CO)c2)ccc(F)c1F` (single isomer, unassigned) [Compound 710], 10 to 100 nM.

By IC50 is commonly meant the concentration needed to halve the response being measured.
